Key:
papillary muscle of dog = experiment: Effect on contraction of an isolated and cross-circulated papillary muscle preparation of the dog; conditions: Canis lupus familiaris, read-out: Contraction of papillary muscle of dog, increase; for activation at 0.03 mg: 30 μg i.a.; for activation at 0.01 mg: 10 μg i.a.
Description: 1. Effect on contraction of an isolated and cross-circulated papillary muscle preparation of the dog
An isolated and cross-circulated papillary muscle preparation of the dog was prepared by Endo and Hashimoto's method (referred to American Journal of Physiology, 218, 1459-1463, 1970). The effect of the compound was measured by closely intraarterially injecting the compound dissolved in a solvent to the papillary muscle for the purpose of recording its effect on contraction of papillary muscle.

[1] = test system: left atrium of guinea pig; experiment: Effect on contraction of an isolated left atrium of the guinea pig; conditions: Cavia porcellus, read-out: Contraction of left atrium of guinea pig, increase; for activation at 30 µg/mL: 3 × 10^-5 g/ml; for activation at 10 µg/mL: 10^-5 g/ml
Description: 2. Effect on contraction of an isolated left atrium of the guinea pig
A left atrium was isolated from a male guinea pig with 200-300 g of body weight soon after striking on the back of its head. The mitral orifice was fixed to the bottom of an organ bath filled with 30 ml of Krebs-Henseleit solution maintained at 35° C. A gas mixture comprising 95% of O2 and 5% of CO2 was passed through the Krebs-Henseleit solution in the organ bath. Isometric tension was measured by connecting a left auricle of heart and a transducer by a yarn. A resting tension of 0.5 g was given to the atrium, which was then electrically driven with square pulses with duration of 1 msec and voltage of 1.5 times as much as threshold in the rate of 2 Hz via dipolar platinum electrodes.
After stabilizing the atrium for 30 minutes from its preparation, the compound dissolved in a solvent was added to the organ bath to measure its effect.

Anesthetized dog = experiment: Effects on myocardial contraction in anesthetized dogs; assay type: in vivo, dog (male and female mongrel dogs); conditions: for Anesthetized dog, CO (cardiac output) increase: aortic blood flow as index
Description: 3. Effects on myocardial contraction in anesthetized dogs
Male and female mongrel dogs with body weight of 8-15 kg were used. A dog was anesthetized by intraveneous injection of 30 mg/kg of sodium pentobarbital and practiced artificial respiration. The dog was thoractomized between fourth and fifth costa which was cut off. The pericardium was incised to expose heart. Blood flow through the aorta, which was measured with an electromagnetic blood flowmeter whose probe was attached to the ascending aorta, was used as an approximate index of cardiac output (CO). Left ventricular pressure (LVP) was measured with a Miller Catheter-tip pressure transducer and the first derivative of the LVP (dP/dt) was measured with a differentiater. Contraction of right ventricular muscle (Cont) was determined with a strain-gauge attached to the wall. Systemic blood pressure was measured from the left femoral artery. Heart rate was measured with electrocardiogram (lead II) and a cardiotachometer. The compound dissolved in a solvent was administered intravenously from a left femoral vein.

[2] = Acute toxicity (LD50) for intravenous and oral administration in male mice; conditions: mouse, in vivo
Description: Acute toxicity (LD50) for intravenous and oral administration in male mice was determined by the method of […] and Wilcoxon (referred to Journal of Pharmacology and Experimental Therapeutics, 96, 99-113, 1949).

Compound: O=C1CCC(c2ccc(Nc3ncccn3)cc2)=NN1 [6-[4-(2'-pyrimidinyl)aminophenyl]-4,5-dihydro-3(2H)-pyridazinone]
- activation at 0.03 mg (papillary muscle of dog): 5.7%
- activation at 0.1 mg (papillary muscle of dog; 100 μg i.a.): 15.9%
- activation at 30 µg/mL [1]: 66%
- activation at 10 µg/mL [1]: 42%

Compound: O=C1CCC(c2ccc(Nc3ccncc3)cc2)=NN1 [6-[4-(4'-pyridyl)aminophenyl]-4,5-dihydro-3(2H)-pyridazinone]
- activation at 0.01 mg (papillary muscle of dog): 13.2%
- activation at 0.03 mg (papillary muscle of dog): 15.4%
- activation at 30 µg/mL [1]: 138%
- activation at 10 µg/mL [1]: 115%
- Anesthetized dog, Cont (contraction of right ventricular muscle) increase (Anesthetized dog; 10 μg/kg i.v.): 23%
- Anesthetized dog, dP/dt max increase (Anesthetized dog; 10 μg/kg i.v.): 45%
- Anesthetized dog, CO (cardiac output) increase (Anesthetized dog; 10 μg/kg i.v.): 13%
- Anesthetized dog, Cont (contraction of right ventricular muscle) increase (Anesthetized dog; 30 μg/kg i.v.): 57%
- Anesthetized dog, dP/dt max increase (Anesthetized dog; 30 μg/kg i.v.): 93%
- Anesthetized dog, CO (cardiac output) increase (Anesthetized dog; 30 μg/kg i.v.): 28%
- LD50 ([2]; iv): 97 mg/kg
- LD50 ([2]; po): 341 mg/kg

Compound: CC1CC(c2ccc(Nc3ccncc3)cc2)=NNC1=O (stereo not drawn) [6-[4-(4'-pyridyl)aminophenyl]-4-methyl-4,5-dihydro-3(2H)pyridazinone]
- activation at 0.01 mg (papillary muscle of dog): 22.6%
- activation at 0.03 mg (papillary muscle of dog): 50%
- activation at 30 µg/mL [1]: 109%
- activation at 10 µg/mL [1]: 85.9%
- Anesthetized dog, Cont (contraction of right ventricular muscle) increase (Anesthetized dog; 30 μg/kg i.v.): 21.6%
- Anesthetized dog, dP/dt max increase (Anesthetized dog; 30 μg/kg i.v.): 29.1%
- Anesthetized dog, CO (cardiac output) increase (Anesthetized dog; 30 μg/kg i.v.): 8.6%
- Anesthetized dog, Cont (contraction of right ventricular muscle) increase (Anesthetized dog; 100 μg/kg i.v.): 64.0%
- Anesthetized dog, dP/dt max increase (Anesthetized dog; 100 μg/kg i.v.): 64.7%
- Anesthetized dog, CO (cardiac output) increase (Anesthetized dog; 100 μg/kg i.v.): 26.7%

Compound: CC1CC(=O)NN=C1c1ccc(Nc2ccncc2)cc1 (stereo not drawn) [6-[4-(4'-pyridyl)aminophenyl]-5-methyl-4,5-dihydro-3(2H)pyridazinone]
- activation at 0.003 mg (papillary muscle of dog; 3 μg i.a.): 28.6%
- activation at 0.01 mg (papillary muscle of dog): 38.7%
- activation at 30 µg/mL [1]: 97.9%
- activation at 10 µg/mL [1]: 86.6%
- Anesthetized dog, Cont (contraction of right ventricular muscle) increase (Anesthetized dog; 3 μg/kg i.v.): 13.3%
- Anesthetized dog, dP/dt max increase (Anesthetized dog; 3 μg/kg i.v.): 14.4%
- Anesthetized dog, CO (cardiac output) increase (Anesthetized dog; 3 μg/kg i.v.): 14.4%
- Anesthetized dog, Cont (contraction of right ventricular muscle) increase (Anesthetized dog; 10 μg/kg i.v.): 75.9%
- Anesthetized dog, dP/dt max increase (Anesthetized dog; 10 μg/kg i.v.): 73.8%
- Anesthetized dog, CO (cardiac output) increase (Anesthetized dog; 10 μg/kg i.v.): 26.7%
